Assay results reported in patent US20260092057A1, “BCL-XL/BCL-2 DEGRADERS AND USES THEREOF” (Kymera Therapeutics, Inc., priority 2022, published 2026).

Columns and labels:
Caki-2 cells = test: CTG (CellTiter-Glo) cell viability assay, Caki-2; type: cell-based; conditions: Homo sapiens, CAKI-2, 72 h, Caki-2, 3-day; read-out: CTG Chempartner/PHA- Caki-2 3-day: Average external-IC50
Method: (§1) Compound-mediated viability effect on MOLT-4 and Caki-2 was quantitatively determined using the CellTiter-Glo® Luminescent Cell Viability Assay kit from Promega (Catalog number G7570) following manufacturer's recommended procedures. Briefly, MOLT-4 and Caki-2 cells were seeded into 384 well plates (Grenier Bio-One, Catalog number 781080) with a density of 10,000 cells per well. Compounds were then added to the assay plate with final top concentration of 10 µM and 1:3 dilution series with total of 9 doses. The final DMSO concentration is normalized to 0.2%. The assay plates were incubated at 37° C. for 3 days under 5% CO2. Then the assay plate was equilibrated at room temperature for 10 minutes. To determine cell viability, 30 uL CellTiter Glo reagent was added to each well and the assay plate was centrifuged at 1000 rpm for 30 second, incubated at room temperature for 10 min, and analyzed by detecting the luminescence using a multimode plate reader (EnVision 2105, PerkinElmer). The data was then analyzed by software Prism 7.0 from GraphPad and the dose response curves are fit using a three-parameter logistic equation to calculate IC50.
(§2) The letter codes for MOLT-4 IC50 include: A (<0.1 μM); B (0.1-1.0 μM); C (>1.0-3.0 μM); and D (>3.0 μM). The letter codes for Caki-2 IC50 include: A (<5 μM); B (5-10 μM); C (>10-30.0 μM); and D (>30.0 μM).

MOLT-4 cells = test: CTG (CellTiter-Glo) cell viability assay, MOLT-4; type: cell-based; conditions: Homo sapiens, MOLT-4, 72 h, MOLT-4, 3 day; read-out: CTG Cell Viability Assay - MOLT-4 3 day: Average external-IC50
Method: as §1, §2

| Structure (SMILES) | IC50 (Caki-2 cells) | IC50 (MOLT-4 cells) |
| --- | --- | --- |
| C#Cc1ccc(CNC(=O)[C@@H]2C[C@@H](O)CN2C(=O)[C@@H](NC(=O)C2(F)CC2)C(C)(C)C)c(OCCCCCCC(=O)N2CCN(CCCNc3ccc(S(=O)(=O)NC(=O)c4ccc(N5CCN(CC6=C(c7ccc(Cl)cc7)CC(C)(C)CC6)CC5)cc4Oc4cnc5[nH]ccc5c4)cc3S(=O)(=O)C(F)(F)F)CC2)c1 [I-104] | > 30000 nM | > 3000 nM |
| Cc1ncsc1-c1ccc([C@H](C)NC(=O)[C@@H]2C[C@@H](N)CN2C(=O)[C@@H](NC(=O)C2CCN(CCCNc3ccc(S(=O)(=O)NC(=O)c4ccc(N5CCC([C@H](O)c6ccccc6-c6ccc(Cl)cc6)CC5)cc4Oc4cnc5[nH]ccc5c4)cc3S(=O)(=O)C(F)(F)F)CC2)C(C)(C)C)cc1 [I-92] | > 30000 nM | > 3000 nM |
| Cc1ncsc1-c1ccc([C@H](C)NC(=O)[C@@H]2C[C@@H](O)CN2C(=O)[C@@H](NC(=O)CCCCCC(=O)N2CC3(CN(CCCNc4ccc(S(=O)(=O)NC(=O)c5ccc(N6CCN(CC7=C(c8ccc(Cl)cc8)CC(C)(C)CC7)CC6)cc5Oc5cnc6[nH]ccc6c5)cc4S(=O)(=O)C(F)(F)F)C3)C2)C(C)(C)C)cc1 [I-107] | > 30000 nM | 100 to 1000 nM |
| Cc1ncsc1-c1ccc([C@H](C)NC(=O)[C@@H]2C[C@@H](O)CN2C(=O)[C@@H](NC(=O)CCCCCC(=O)N(C)CCCNc2ccc(S(=O)(=O)NC(=O)c3ccc(N4CCC([C@H](O)c5ccccc5-c5ccc(Cl)cc5)CC4)cc3Oc3cnc4[nH]ccc4c3)cc2S(=O)(=O)C(F)(F)F)C(C)(C)C)cc1 (single isomer, unassigned) [I-58] | > 30000 nM | 1000 to 3000 nM |
| Cc1ncsc1-c1ccc([C@H](C)NC(=O)[C@@H]2C[C@@H](O)CN2C(=O)[C@@H](NC(=O)CCC(=O)N2CCN(CCCNc3ccc(S(=O)(=O)NC(=O)c4ccc(N5CCN(CC6=C(c7ccc(Cl)cc7)CC(C)(C)CC6)CC5)cc4Oc4cnc5[nH]ccc5c4)cc3S(=O)(=O)C(F)(F)F)CC2)C(C)(C)C)cc1 [I-79] | > 30000 nM | > 3000 nM |
| Cc1ncsc1-c1ccc([C@H](C)NC(=O)[C@@H]2C[C@@H](O)CN2C(=O)[C@@H](NC(=O)CCCCCC(=O)N2CCN(CC[C@H](CSc3ccccc3)Nc3ccc(S(=O)(=O)NC(=O)c4ccc(N5CC[C@@H](N(C)C)C5)cc4)cc3S(=O)(=O)C(F)(F)F)CC2)C(C)(C)C)cc1 [I-46] | > 30000 nM | > 3000 nM |
| Cc1ncsc1-c1ccc([C@H](C)NC(=O)[C@@H]2C[C@@H](O)CN2C(=O)[C@@H](NC(=O)CCCCCC(=O)N2CCN(CC[C@H](CSc3ccccc3)Nc3ccc(S(=O)(=O)NC(=O)c4ccc(N5CC6(CCC6)C5)cc4)cc3S(=O)(=O)C(F)(F)F)CC2)C(C)(C)C)cc1 [I-45] | > 30000 nM | > 3000 nM |
| Cc1ncsc1-c1ccc([C@H](C)NC(=O)[C@@H]2C[C@@H](O)CN2C(=O)[C@@H](NC(=O)CCCC(=O)N2CCN(CCCNc3ccc(S(=O)(=O)NC(=O)c4ccc(N5CCN(CC6=C(c7ccc(Cl)cc7)CC(C)(C)CC6)CC5)cc4Oc4cnc5[nH]ccc5c4)cc3S(=O)(=O)C(F)(F)F)CC2)C(C)(C)C)cc1 [I-78] | > 30000 nM | > 3000 nM |
| Cc1ncsc1-c1ccc([C@H](C)NC(=O)[C@@H]2C[C@@H](O)CN2C(=O)[C@@H](NC(=O)CCCCCC(=O)N2CCN(Cc3ccc(-c4ccc(Cl)cc4)c([C@@H](O)C4CCN(c5ccc(C(=O)NS(=O)(=O)c6ccc(NCCCN(C)C)c(S(=O)(=O)C(F)(F)F)c6)c(Oc6cnc7[nH]ccc7c6)c5)CC4)c3)CC2)C(C)(C)C)cc1 [I-112] | > 30000 nM | > 3000 nM |
| Cc1ncsc1-c1ccc([C@H](C)NC(=O)[C@@H]2C[C@@H](O)CN2C(=O)[C@@H](NC(=O)CCCCCN(CCO)CCCNc2ccc(S(=O)(=O)NC(=O)c3ccc(N4CCN(CC5=C(c6ccc(Cl)cc6)CC(C)(C)CC5)CC4)cc3Oc3cnc4[nH]ccc4c3)cc2S(=O)(=O)C(F)(F)F)C(C)(C)C)cc1 [I-100] | > 30000 nM | > 3000 nM |
| Cc1ncsc1-c1ccc([C@H](C)NC(=O)[C@@H]2C[C@@H](O)CN2C(=O)[C@@H](NC(=O)CCCCCC(=O)N2CCN(CC[C@H](CSc3ccccc3)Nc3ccc(S(=O)(=O)NC(=O)c4ccc(N5CC(N(C)C)C5)cc4)cc3S(=O)(=O)C(F)(F)F)CC2)C(C)(C)C)cc1 [I-49] | > 30000 nM | > 3000 nM |
| Cc1ncsc1-c1ccc([C@H](C)NC(=O)[C@@H]2C[C@@H](O)CN2C(=O)[C@@H](NC(=O)CCCCCC(=O)NCCCNc2ccc(S(=O)(=O)NC(=O)c3ccc(N4CCC([C@@H](O)c5ccccc5-c5ccc(Cl)cc5)CC4)cc3Oc3cnc4[nH]ccc4c3)cc2S(=O)(=O)C(F)(F)F)C(C)(C)C)cc1 [I-55] | > 30000 nM | > 3000 nM |
| Cc1ncsc1-c1ccc([C@H](C)NC(=O)[C@@H]2C[C@@H](O)CN2C(=O)[C@@H](NC(=O)CCCCCN(C)CCNc2ccc(S(=O)(=O)NC(=O)c3ccc(N4CCN(CC5=C(c6ccc(Cl)cc6)CC(C)(C)CC5)CC4)cc3Oc3cnc4[nH]ccc4c3)cc2S(=O)(=O)C(F)(F)F)C(C)(C)C)cc1 [I-77] | 10000 to 30000 nM | 100 to 1000 nM |
| Cc1ncsc1-c1ccc([C@H](C)NC(=O)[C@@H]2C[C@@H](O)CN2C(=O)[C@@H](NC(=O)C2CCN(c3ccc(N(C)CCCNc4ccc(S(=O)(=O)NC(=O)c5ccc(N6CCN(CC7=C(c8ccc(Cl)cc8)CC(C)(C)CC7)CC6)cc5Oc5cnc6[nH]ccc6c5)cc4S(=O)(=O)C(F)(F)F)cc3)CC2)C(C)(C)C)cc1 [I-89] | > 30000 nM | > 3000 nM |
| Cc1ncsc1-c1ccc([C@H](C)NC(=O)[C@@H]2C[C@@H](O)CN2C(=O)[C@@H](NC(=O)CCCCCCCCC(=O)NCc2ccc(-c3ccc(Cl)cc3)c(CN3CCN(c4ccc(C(=O)NS(=O)(=O)c5ccc(N[C@H](CCN(C)C)CSc6ccccc6)c([N+](=O)[O-])c5)cc4)CC3)c2)C(C)(C)C)cc1 [I-20] | > 30000 nM | > 3000 nM |
| Cc1ncsc1-c1ccc(CNC(=O)[C@@H]2C[C@@H](O)CN2C(=O)[C@@H](NC(=O)C2(F)CC2)C(C)(C)C)c(OCCCCCCC(=O)N2CCN(Cc3ccc(-c4ccc(Cl)cc4)c(CN4CCN(c5ccc(C(=O)NS(=O)(=O)c6ccc(N[C@H](CCN(C)C)CSc7ccccc7)c([N+](=O)[O-])c6)cc5)CC4)c3)CC2)c1 [I-18] | > 30000 nM | > 3000 nM |
| Cc1ncsc1-c1ccc([C@H](C)NC(=O)[C@@H]2C[C@@H](O)CN2C(=O)[C@@H](NC(=O)CCCCCC(=O)N(C)CCCNc2ccc(S(=O)(=O)NC(=O)c3ccc(N4CCN(Cc5ccccc5-c5ccc(Cl)cc5)CC4)cc3Oc3cnc4[nH]ccc4c3)cc2S(=O)(=O)C(F)(F)F)C(C)(C)C)cc1 [I-61] | > 30000 nM | > 3000 nM |
| Cc1ncsc1-c1ccc([C@H](C)NC(=O)[C@@H]2C[C@@H](O)CN2C(=O)[C@@H](NC(=O)CCCCCC(=O)N(C)CC[C@H](CSc2ccccc2)Nc2ccc(S(=O)(=O)NC(=O)c3ccc(N4CCC([C@H](O)c5ccccc5-c5ccc(Cl)cc5)CC4)cc3)cc2S(=O)(=O)C(F)(F)F)C(C)(C)C)cc1 [I-73] | > 30000 nM | > 3000 nM |
| Cc1ncsc1-c1ccc([C@H](C)NC(=O)[C@@H]2C[C@@H](O)CN2C(=O)[C@@H](NC(=O)CCCCCC(=O)NCCCNc2ccc(S(=O)(=O)NC(=O)c3ccc(N4CCC([C@H](O)c5ccccc5-c5ccc(Cl)cc5)CC4)cc3Oc3cnc4[nH]ccc4c3)cc2S(=O)(=O)C(F)(F)F)C(C)(C)C)cc1 [I-56] | > 30000 nM | > 3000 nM |
